The conditions of data set [1]: Crystal; DTA.
Data set [2] in a line: Molar enthalpy of transition or fusion. Conditions: Crystal; DSC.

Molecules are shown by their SMILES. Numbers after ± are expanded uncertainties.

Experimental findings from the NIST ThermoML archive (doi:10.1016/j.tca.2009.09.001) are described below.

In the case of `O[C@@H]1CCCC[C@H]1O` [(1R,2R)-1,2-cyclohexanediol], in data set [1], the Normal melting temperature was 108 ± 1 °C. Besides, the “Molar enthalpy of transition or fusion” value in data set [2] is 4.3 ± 0.143 kcal/mol.

As to `O[C@H]1CCCC[C@@H]1O` [1,2-cyclohexanediol, (1S,2S)-], the Normal melting temperature in data set [1] was 104 ± 1 °C. In addition, in data set [2], the “Molar enthalpy of transition or fusion” value was determined as 3.59 ± 0.12 kcal/mol.

Regarding `O[C@@H]1CCCC[C@H]1O` (relative stereo) [trans-1,2-cyclohexanediol], the Normal melting temperature in data set [1] stood at 99 ± 1 °C. Besides, the “Molar enthalpy of transition or fusion” value in data set [2] worked out at 8.22 ± 0.239 kcal/mol.

On to `O=C(O)[C@H](O)[C@@H](O)C(=O)O` [(2R,3R)-2,3-dihydroxybutanedioic acid], for which the Normal melting temperature in data set [1] was 171 ± 1 °C. The “Molar enthalpy of transition or fusion” value in data set [2] turned out to be 5.35 ± 0.167 kcal/mol.
